From paper PMC8371902, “Phase 1 study of M2698, a p70S6K/AKT dual inhibitor, in patients with advanced cancer” (Journal of Hematology & Oncology, 2021)
Like-named read-outs stand apart in the source and are kept apart here.

System: patients with advanced metastatic cancer
From the text: In this phase 1 study, dose escalation was followed by expansion cohorts of once-daily, oral M2698 in continuous 21-day cycles. Primary objectives were to determine the maximum tolerated dose (MTD), dose-limiting toxicities (DLTs), and recommended phase 2 dose (RP2D). Secondary objectives were to assess safety and tolerability, pharmacokinetics (PK, including food effect) and antitumor activity. Pharmacodynamic biomarker assessments were exploratory. Treatment was discontinued if there was disease progression, toxicity or consent withdrawal.
In Part 1, M2698 monotherapy was investigated in a dose escalation with a food effect cohort. In Part 2, M2698 was investigated as monotherapy (expansion cohort) to further characterize safety, tolerability and pharmacokinetics, and assess antitumor activity in PAM + patients without confounding markers (exploratory).
Dose escalation analysis included all patients who experienced a DLT and those who received ≥ 80% of planned M2698 doses in cycle 1 without experiencing a DLT. Safety analysis included all patients who received ≥ 1 dose of M2698. PK analysis included all patients who received ≥ 1 dose of M2698 and had measurable plasma concentrations. Dose proportionality was tested using the power model (linear regression approach on the log -transformed scale).

NC(=O)c1cccc2c(N[C@H](CN3CCC3)c3ccc(Cl)c(C(F)(F)F)c3)ncnc12 [M2698]
1: M2698-related TEAE: Gamma-glutamyltransferase increased (15 mg n=3) | M2698-related TEAE: Investigations (15 mg n=3) | M2698-related TEAE: Subjects with at least one event (15 mg n=3) | M2698-related TEAE: Diarrhoea (30 mg n=3) | M2698-related TEAE: Eye disorders (30 mg n=3) | M2698-related TEAE: Gastrointestinal disorders (30 mg n=3) | M2698-related TEAE: Hypokalaemia (30 mg n=3) | M2698-related TEAE: Metabolism and nutrition disorders (30 mg n=3) | M2698-related TEAE: Rash maculo-papular (30 mg n=3) | M2698-related TEAE: Skin and subcutaneous tissue disorders (30 mg n=3) | M2698-related TEAE: Vision blurred (30 mg n=3) | M2698-related TEAE: Affect lability (60 mg n=6) | M2698-related TEAE: Alanine aminotransferase increased (60 mg n=6) | M2698-related TEAE: Amylase increased (60 mg n=6) | M2698-related TEAE: Angina pectoris (60 mg n=6) | M2698-related TEAE: Cardiac disorders (60 mg n=6) | M2698-related TEAE: Investigations (60 mg n=6) | M2698-related TEAE: Lipase increased (60 mg n=6) | M2698-related TEAE: Onychomadesis (60 mg n=6) | M2698-related TEAE: Psychiatric disorders (60 mg n=6) | M2698-related TEAE: Skin and subcutaneous tissue disorders (60 mg n=6) | M2698-related TEAE: Abnormal dreams (75 mg n=4)
grade 3 lipase increase: DLT observed (60 mg, n = 1, resolved following treatment interruption)
0: M2698-related TEAE: Abnormal dreams (15 mg n=3) | M2698-related TEAE: Affect lability (15 mg n=3) | M2698-related TEAE: Alanine aminotransferase increased (15 mg n=3) | M2698-related TEAE: Amylase increased (15 mg n=3) | M2698-related TEAE: Anaemia (15 mg n=3) | M2698-related TEAE: Angina pectoris (15 mg n=3) | M2698-related TEAE: Anxiety (15 mg n=3) | M2698-related TEAE: Aphasia (15 mg n=3) | M2698-related TEAE: Ataxia (15 mg n=3) | M2698-related TEAE: Blood and lymphatic system disorders (15 mg n=3) | M2698-related TEAE: Blood creatine phosphokinase increased (15 mg n=3) | M2698-related TEAE: Blood creatinine increased (15 mg n=3) | M2698-related TEAE: Cardiac disorders (15 mg n=3) | M2698-related TEAE: Cognitive disorder (15 mg n=3) | M2698-related TEAE: Constipation (15 mg n=3) | M2698-related TEAE: Decreased appetite (15 mg n=3) | M2698-related TEAE: Delusion (15 mg n=3) | M2698-related TEAE: Depression (15 mg n=3) | M2698-related TEAE: Diarrhoea (15 mg n=3) | M2698-related TEAE: Diarrhoea haemorrhagic (15 mg n=3) | M2698-related TEAE: Dizziness (15 mg n=3) | M2698-related TEAE: Dry eye (15 mg n=3) | M2698-related TEAE: Dry mouth (15 mg n=3) | M2698-related TEAE: Dysgeusia (15 mg n=3) | M2698-related TEAE: Dyspepsia (15 mg n=3) | M2698-related TEAE: Dysphagia (15 mg n=3) | M2698-related TEAE: Energy increased (15 mg n=3) | M2698-related TEAE: Erythema (15 mg n=3) | M2698-related TEAE: Euphoric mood (15 mg n=3) | M2698-related TEAE: Eye disorders (15 mg n=3) | M2698-related TEAE: Fatigue (15 mg n=3) | M2698-related TEAE: Gastrointestinal disorders (15 mg n=3) | M2698-related TEAE: Gastrooesophageal reflux disease (15 mg n=3) | M2698-related TEAE: General disorders and administration site conditions (15 mg n=3) | M2698-related TEAE: Headache (15 mg n=3) | M2698-related TEAE: Hyperhidrosis (15 mg n=3) | M2698-related TEAE: Hypokalaemia (15 mg n=3) | M2698-related TEAE: Hypomagnesaemia (15 mg n=3) | M2698-related TEAE: Insomnia (15 mg n=3) | M2698-related TEAE: Lipase increased (15 mg n=3) | M2698-related TEAE: Lymphopenia (15 mg n=3) | M2698-related TEAE: Metabolism and nutrition disorders (15 mg n=3) | M2698-related TEAE: Mucosal inflammation (15 mg n=3) | M2698-related TEAE: Nausea (15 mg n=3) | M2698-related TEAE: Nervous system disorders (15 mg n=3) | M2698-related TEAE: Nightmare (15 mg n=3) | M2698-related TEAE: Onychomadesis (15 mg n=3) | M2698-related TEAE: Paranoia (15 mg n=3) | M2698-related TEAE: Photosensitivity reaction (15 mg n=3) | M2698-related TEAE: Posterior reversible encephalopathy syndrome (15 mg n=3) | M2698-related TEAE: Pruritus generalised (15 mg n=3) | M2698-related TEAE: Psychiatric disorders (15 mg n=3) | M2698-related TEAE: Rash (15 mg n=3) | M2698-related TEAE: Rash maculo-papular (15 mg n=3) | M2698-related TEAE: Skin and subcutaneous tissue disorders (15 mg n=3) | M2698-related TEAE: Transaminases increased (15 mg n=3) | M2698-related TEAE: Tremor (15 mg n=3) | M2698-related TEAE: Vision blurred (15 mg n=3) | M2698-related TEAE: Vomiting (15 mg n=3) | M2698-related TEAE: White blood cell count decreased (15 mg n=3) | M2698-related TEAE: Abnormal dreams (30 mg n=3) | M2698-related TEAE: Affect lability (30 mg n=3) | M2698-related TEAE: Alanine aminotransferase increased (30 mg n=3) | M2698-related TEAE: Amylase increased (30 mg n=3) | M2698-related TEAE: Anaemia (30 mg n=3) | M2698-related TEAE: Angina pectoris (30 mg n=3) | M2698-related TEAE: Anxiety (30 mg n=3) | M2698-related TEAE: Aphasia (30 mg n=3) | M2698-related TEAE: Ataxia (30 mg n=3) | M2698-related TEAE: Blood and lymphatic system disorders (30 mg n=3) | M2698-related TEAE: Blood creatine phosphokinase increased (30 mg n=3) | M2698-related TEAE: Blood creatinine increased (30 mg n=3) | M2698-related TEAE: Cardiac disorders (30 mg n=3) | M2698-related TEAE: Cognitive disorder (30 mg n=3) | M2698-related TEAE: Constipation (30 mg n=3) | M2698-related TEAE: Decreased appetite (30 mg n=3) | M2698-related TEAE: Delusion (30 mg n=3) | M2698-related TEAE: Depression (30 mg n=3) | M2698-related TEAE: Diarrhoea haemorrhagic (30 mg n=3) | M2698-related TEAE: Dizziness (30 mg n=3) | M2698-related TEAE: Dry eye (30 mg n=3) | M2698-related TEAE: Dry mouth (30 mg n=3) | M2698-related TEAE: Dysgeusia (30 mg n=3) | M2698-related TEAE: Dyspepsia (30 mg n=3) | M2698-related TEAE: Dysphagia (30 mg n=3) | M2698-related TEAE: Energy increased (30 mg n=3) | M2698-related TEAE: Erythema (30 mg n=3) | M2698-related TEAE: Euphoric mood (30 mg n=3) | M2698-related TEAE: Fatigue (30 mg n=3) | M2698-related TEAE: Gamma-glutamyltransferase increased (30 mg n=3) | M2698-related TEAE: Gastrooesophageal reflux disease (30 mg n=3) | M2698-related TEAE: General disorders and administration site conditions (30 mg n=3) | M2698-related TEAE: Headache (30 mg n=3) | M2698-related TEAE: Hyperhidrosis (30 mg n=3) | M2698-related TEAE: Hypomagnesaemia (30 mg n=3) | M2698-related TEAE: Insomnia (30 mg n=3) | M2698-related TEAE: Investigations (30 mg n=3) | M2698-related TEAE: Lipase increased (30 mg n=3) | M2698-related TEAE: Lymphopenia (30 mg n=3) | M2698-related TEAE: Mucosal inflammation (30 mg n=3) | M2698-related TEAE: Nausea (30 mg n=3) | M2698-related TEAE: Nervous system disorders (30 mg n=3) | M2698-related TEAE: Nightmare (30 mg n=3) | M2698-related TEAE: Onychomadesis (30 mg n=3) | M2698-related TEAE: Paranoia (30 mg n=3) | M2698-related TEAE: Photosensitivity reaction (30 mg n=3) | M2698-related TEAE: Posterior reversible encephalopathy syndrome (30 mg n=3) | M2698-related TEAE: Pruritus generalised (30 mg n=3) | M2698-related TEAE: Psychiatric disorders (30 mg n=3) | M2698-related TEAE: Rash (30 mg n=3) | M2698-related TEAE: Transaminases increased (30 mg n=3) | M2698-related TEAE: Tremor (30 mg n=3) | M2698-related TEAE: Vomiting (30 mg n=3) | M2698-related TEAE: White blood cell count decreased (30 mg n=3) | M2698-related TEAE: Abnormal dreams (60 mg n=6) | M2698-related TEAE: Anaemia (60 mg n=6) | M2698-related TEAE: Anxiety (60 mg n=6) | M2698-related TEAE: Aphasia (60 mg n=6) | M2698-related TEAE: Ataxia (60 mg n=6) | M2698-related TEAE: Blood and lymphatic system disorders (60 mg n=6) | M2698-related TEAE: Blood creatine phosphokinase increased (60 mg n=6) | M2698-related TEAE: Blood creatinine increased (60 mg n=6) | M2698-related TEAE: Cognitive disorder (60 mg n=6) | M2698-related TEAE: Constipation (60 mg n=6) | M2698-related TEAE: Decreased appetite (60 mg n=6) | M2698-related TEAE: Delusion (60 mg n=6) | M2698-related TEAE: Depression (60 mg n=6) | M2698-related TEAE: Diarrhoea (60 mg n=6) | M2698-related TEAE: Diarrhoea haemorrhagic (60 mg n=6) | M2698-related TEAE: Dizziness (60 mg n=6) | M2698-related TEAE: Dry eye (60 mg n=6) | M2698-related TEAE: Dry mouth (60 mg n=6) | M2698-related TEAE: Dysgeusia (60 mg n=6) | M2698-related TEAE: Dyspepsia (60 mg n=6) | M2698-related TEAE: Dysphagia (60 mg n=6) | M2698-related TEAE: Energy increased (60 mg n=6) | M2698-related TEAE: Erythema (60 mg n=6) | M2698-related TEAE: Euphoric mood (60 mg n=6) | M2698-related TEAE: Eye disorders (60 mg n=6) | M2698-related TEAE: Fatigue (60 mg n=6) | M2698-related TEAE: Gamma-glutamyltransferase increased (60 mg n=6) | M2698-related TEAE: Gastrointestinal disorders (60 mg n=6) | M2698-related TEAE: Gastrooesophageal reflux disease (60 mg n=6) | M2698-related TEAE: General disorders and administration site conditions (60 mg n=6) | M2698-related TEAE: Headache (60 mg n=6) | M2698-related TEAE: Hyperhidrosis (60 mg n=6) | M2698-related TEAE: Hypokalaemia (60 mg n=6) | M2698-related TEAE: Hypomagnesaemia (60 mg n=6) | M2698-related TEAE: Insomnia (60 mg n=6) | M2698-related TEAE: Lymphopenia (60 mg n=6) | M2698-related TEAE: Metabolism and nutrition disorders (60 mg n=6) | M2698-related TEAE: Mucosal inflammation (60 mg n=6) | M2698-related TEAE: Nausea (60 mg n=6) | M2698-related TEAE: Nervous system disorders (60 mg n=6) | M2698-related TEAE: Nightmare (60 mg n=6) | M2698-related TEAE: Paranoia (60 mg n=6) | M2698-related TEAE: Photosensitivity reaction (60 mg n=6) | M2698-related TEAE: Posterior reversible encephalopathy syndrome (60 mg n=6) | M2698-related TEAE: Pruritus generalised (60 mg n=6) | M2698-related TEAE: Rash (60 mg n=6) | M2698-related TEAE: Rash maculo-papular (60 mg n=6) | M2698-related TEAE: Transaminases increased (60 mg n=6) | M2698-related TEAE: Tremor (60 mg n=6) | M2698-related TEAE: Vision blurred (60 mg n=6) | M2698-related TEAE: Vomiting (60 mg n=6) | M2698-related TEAE: White blood cell count decreased (60 mg n=6) | M2698-related TEAE: Affect lability (75 mg n=4) | M2698-related TEAE: Alanine aminotransferase increased (75 mg n=4) | M2698-related TEAE: Amylase increased (75 mg n=4) | M2698-related TEAE: Anaemia (75 mg n=4) | M2698-related TEAE: Angina pectoris (75 mg n=4) | M2698-related TEAE: Anxiety (75 mg n=4) | M2698-related TEAE: Aphasia (75 mg n=4)
2: M2698-related TEAE: Subjects with at least one event (30 mg n=3) | M2698-related TEAE: Subjects with at least one event (60 mg n=6)
